Numbering of substitutions follows the chain as printed.
How the values were obtained:
Experiment in all cases: isothermal titration calorimetry
Format in all cases: binding
[1] = target: T1, yYkt6ΔC (Saccharomyces cerevisiae, UniProt P36015, Q57A/T46L)
T1 construct: gene YKT6; residues 1-195, C-terminal CCIIM motif removed; His6 tag; pET-M3C; E. coli BL21(DE3); not lipidated
T1 sequence (P36015 1-195 T46L/Q57A): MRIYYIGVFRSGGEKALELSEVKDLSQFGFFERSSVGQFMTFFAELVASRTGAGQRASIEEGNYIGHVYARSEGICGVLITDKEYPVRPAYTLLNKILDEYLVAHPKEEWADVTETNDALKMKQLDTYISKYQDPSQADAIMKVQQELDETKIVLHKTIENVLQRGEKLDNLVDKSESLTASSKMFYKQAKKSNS

[2] = target: T2, rYkt6ΔC (Rattus norvegicus, UniProt Q5EGY4)
T2 construct: gene Ykt6; residues 1-193, C-terminal CCAIM motif removed; His6 tag; pET-M3C; E. coli BL21(DE3); not lipidated
T2 sequence (Q5EGY4 1-193): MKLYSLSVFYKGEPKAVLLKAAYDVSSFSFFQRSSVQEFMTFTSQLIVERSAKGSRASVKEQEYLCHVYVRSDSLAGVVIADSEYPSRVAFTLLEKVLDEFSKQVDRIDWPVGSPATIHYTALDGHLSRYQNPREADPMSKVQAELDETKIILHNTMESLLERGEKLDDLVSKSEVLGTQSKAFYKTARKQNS

[3] = target: T3, yYkt6ΔC (Saccharomyces cerevisiae, UniProt P36015); settings: 50 mM Tris pH 8.0, 100 mM NaCl, 1 mM EDTA, 1 mM β-mercaptoethanol, 25 °C
T3 construct: gene YKT6; residues 1-195, C-terminal CCIIM motif removed; His6 tag; pET-M3C; E. coli BL21(DE3); not lipidated
T3 sequence (P36015 1-195): T1 sequence (P36015 1-195 T46L/Q57A) with L46T, A57Q

[4] = target: T4, yYkt6ΔC (Saccharomyces cerevisiae, UniProt P36015, T46L/Q57A/L172A); settings: 50 mM Tris pH 8.0, 100 mM NaCl, 1 mM EDTA, 1 mM β-mercaptoethanol, 25 °C
T4 construct: gene YKT6; residues 1-195, C-terminal CCIIM motif removed; His6 tag; pET-M3C; E. coli BL21(DE3); not lipidated
T4 sequence (P36015 1-195 T46L/Q57A/L172A): T1 sequence (P36015 1-195 T46L/Q57A) with L172A

[5] = target: T5, rYkt6ΔC (Rattus norvegicus, UniProt Q5EGY4, S174D); settings: 50 mM Tris pH 8.0, 100 mM NaCl, 1 mM EDTA, 1 mM β-mercaptoethanol, 25 °C
T5 construct: gene Ykt6; residues 1-193, C-terminal CCAIM motif removed; His6 tag; pET-M3C; E. coli BL21(DE3); not lipidated
T5 sequence (Q5EGY4 1-193 S174D): T2 sequence (Q5EGY4 1-193) with S174D

[6] = target: T6, yYkt6ΔC (Saccharomyces cerevisiae, UniProt P36015, S176D); settings: 50 mM Tris pH 8.0, 100 mM NaCl, 1 mM EDTA, 1 mM β-mercaptoethanol, 25 °C
T6 construct: gene YKT6; residues 1-195, C-terminal CCIIM motif removed; His6 tag; pET-M3C; E. coli BL21(DE3); not lipidated
T6 sequence (P36015 1-195 S176D): T1 sequence (P36015 1-195 T46L/Q57A) with L46T, A57Q, S176D

[7] = target: T7, yYkt6ΔC (Saccharomyces cerevisiae, UniProt P36015, T46L/Q57A/L169A); settings: 50 mM Tris pH 8.0, 100 mM NaCl, 1 mM EDTA, 1 mM β-mercaptoethanol, 25 °C
T7 construct: gene YKT6; residues 1-195, C-terminal CCIIM motif removed; His6 tag; pET-M3C; E. coli BL21(DE3); not lipidated
T7 sequence (P36015 1-195 T46L/Q57A/L169A): T1 sequence (P36015 1-195 T46L/Q57A) with L169A

In the case of `CCCCCCCCCCCCOP(=O)([O-])OCC[N+](C)(C)C` [DPC, dodecylphosphocholine], the Kd [1] is reported as 33.3 µM, the Kd [2] is reported as 38.5 µM and the no binding [3] is reported as “It turns out that DPC could not bind to yYkt6ΔC”. For the same molecule, the no binding [4] was “ITC measurements showed that these mutations disrupt the binding with DPC”, the no binding [5] was “ITC experiments showed that DPC could not bind to rYkt6ΔC-S174D mutant” and the no binding [6] was “the phospho-mutant yYkt6ΔC-S176D could not bind DPC either”. For the same molecule, the no binding [7] was “ITC measurements showed that these mutations disrupt the binding with DPC”.
